From PMC10830420, “Structures, functions and adaptations of the human LINE-1 ORF2 protein” (Nature, 2023)
Like-named read-outs stand apart in the source and are kept apart here. One block for each molecule: values may come before it.

How the values were obtained:
ORF2p core [1] = target: T1, ORF2p core (Homo sapiens, UniProt O00370); assay: Homogeneous time-resolved fluorescence (HTRF) ORF2p RT assay; format: biochemical
T1 construct: His6-MBP-3C-ORF2p (238-1061, ORFeus-Hs) in pET41; His6-MBP (3C protease site) (N, cleaved yes); made in house; host or cells: E. coli
Experimental: (§1) ORF2p core was preincubated with a template:primer containing a single site for the incorporation of a given nucleotide analogue. The primer/template sequence shown in the panel a illustrates the case of single incorporation of 3TC, with a single G for incorporation; the incoming template sequence for entecavir and carbovir has a single C, and for d4T a single A, each at position labeled “N”. Reactions were incubated for one minute at 37 °C with a 100 nM dNTP mixture and increasing concentrations of listed inhibitors. IC50 index, fold = IC50 (drug, µM) ÷ [dNTP] […] Fluorescein-labeled dNTPs (here, uracil-TP) are incorporated by ORF2p into a biotinylated primer, here shown against a poly(A) template. Detection is then achieved using FRET with a terbium cryptate labeled streptavidin, and the time-resolved technique and time-delayed emission from terbium cryptate reduces background from other fluorescent chemicals in the mix. In the presence of ORF2p RT inhibitors (RTIs), base incorporation is stopped and FRET signal is lost. […]
(§2) ORF2p reverse transcriptase activity assays […]
For HTRF RT assays157, 25 nM ORF2p core and 12. 5 nM t em plat e: primer was incubated at 25°C for 60 minutes
with 10 nM of fluorescein- 12- dUTP (Thermo), 1 µM each (dATP,dCTP,dGTP), and test compound in a 15 µL
reaction with buffer containing 50 mM Tris-HCl, 50 mM KCl, 10 mM MgCl2, 10 mM DTT, pH 8.1, and 1% final

[2] = test system: L1 retrotransposition reporter in HeLa cells; assay: LINE-1 dual luciferase retrotransposition assay in HeLa cells; format: cell-based, human; settings: for IC50: HeLa cells, stable dual luciferase L1 reporter, normalized to cell viability, n = 3 wells
ORF2p core [3] = target: T1, ORF2p core; assay: Gel-based L1 RT assay, ORF2p core, inhibition by NRTI triphosphates; format: biochemical; settings: 100 nM dNTP mixture; for IC50: NTP forms of NRTIs, one minute at 37 °C
Experimental: as §1, §2
Gel-based RT activity assays consisted of pr e-incubating RTs with annealed DNA/RNA, DNA/DNA, or RNA/RNA 5’- end- radiolabeled or 5’-end-Cy5- o r FAM-labeled template:primer duplex or hybrid duplex and, where indicated, inhibitor in the presence of 0.1- 1 μ M dNTP or NTP mixture, 0.25 mM EDTA, 50 mM NaCl, and 25 mM Tris (pH 8) for 10 min at 37°C. Labeled nucleic acids were purchased from Dharmacon or IDT. Unless otherwise indicated, 15 μL reactions were initiated by the addition of 1.3 mM MgCl2, incubated for 10 min at 37 °C, and then stopped by the addition of 15 μL of formamide/EDTA (25 mM) mixture and incubated at 95 °C for 10 min. 3 μL reaction samples were subjected to denaturing 8 M urea 20% PAGE to resolve products followed by signal quantification (ImageQuant 5.2, GE Healthcare Bio- Sciences) through phosphorimaging (Amersham Typhoon 5, Cytivia). Scanned gel images are […]
minor products; original images are provided in an Extended Data file. […]

[4] = target: T2, human telomerase RT (TERT) (Homo sapiens, UniProt O14746); assay: Telomerase activity assay in MCF-7 cell lysate; format: biochemical; settings: NRTI triphosphates
T2 construct: of human telomerase RT (TERT) by NRTI triphosphates in a biochemical assay in MCF-7 cell lysate; endogenous in cells; host or cells: MCF-7 cell lysate

[5] = test system: interferon production in THP1 cells; assay: Interferon reporter assay in THP1 cells (secreted luciferase); format: cell-based, human
Experimental: Culture Collection ( AT CC); THP1-Dual and THP1- Dual KO-TREX1 cells were from InvivoGen. All cell lines were maintained at 37 °C and 5% CO2 and validated and tested for mycoplasma. All plasmids and affinity reagents are described in Supplementary Tables 4-5 , respectively and available from Addgene at https://www.addgene.org/browse/article/28243724/. […]
Interferon reporter assay in THP1 cells
The type I interferon response was evaluated using THP1 -Dual and THP1-Dual KO-TREX1 cells (InvivoGen), which secrete a Lucia luciferase reporter gene under control of an interferon- responsive promoter. THP1-Dual KO-TREX1 cell were generated by stable biallelic knock-out of the TREX1 gene. Cell were treated with a dose titration of test compound in the presence of 1 µM 5- aza-2ʹ-deoxycytidine (decitabine, Sigma, #189825), which de- represses LINE-1121. Type 1 Interferon and cell viability were assessed after five days of treatment. QUANTI-LUC solution containing stabilizer was added to the cell supernatant and luminescence was measured on a p la t e reader, and cells were assessed for cell viability using CellTiter-Glo (Promega, #G9683) according to the manufacturer’s instructions.
LINE-1 dual luciferase retrotransposition assay
To assess the potency of inhibiting LINE-1 retrotransposon, a stable clonal dual luciferase L1 reporter cell line was generated and reported as described130,133 in the HeLa Tet-On 3G cell line (Takara, ). SB100x161 was used to integrate pRT006.2, a vector similar to pYX056 130 , which contains a bi-directional Tet-On promoter expressing both control Renilla luciferase and LINE-1 ORFeus-Hs Firefly luciferase antisense intron (AI) r epor t er 79,162. A single cell clone was selected with the highest doxycycline-induced luciferase signal vs baseline. Cells were mixed with compounds and induced for reporter expression with 500 ng/mL doxycycline (Sigma, #D9891) for 72 hours. Luminescence was measured using the Dual-Glo Luciferase Assay System (Promega, #E2940) following the manufacturer’s instructions, and the ratio of Firefly to Renilla Luciferase activity was used to measure […]
Telomerase activity assay
The human telomerase assay was performed with telomerase in MCF- 7 cell lysates using the Telo TAGGG Telomerase PCR ELISAplus kit (Roche). Test compounds (NTPs) were serially diluted in water, mixed with 0.2 µg of M CF- 7 lysate, and pre- incubated at room temperature for 15 minutes. Then the reaction was carried out for 30 minutes, amplified using PCR, and visualized colorimetrically per t he manufacturer’s instructions.
Cells were lysed in ice cold RIPA buffer containing 1x protease inhibitor tablet (Thermo), centrifuged for 10 minutes, and clarified lysates were quantified by BCA assay. […]

[6] = HTRF, NRTIs as triphosphates, n = 3 wells

T2 sequence (O14746 whole entry): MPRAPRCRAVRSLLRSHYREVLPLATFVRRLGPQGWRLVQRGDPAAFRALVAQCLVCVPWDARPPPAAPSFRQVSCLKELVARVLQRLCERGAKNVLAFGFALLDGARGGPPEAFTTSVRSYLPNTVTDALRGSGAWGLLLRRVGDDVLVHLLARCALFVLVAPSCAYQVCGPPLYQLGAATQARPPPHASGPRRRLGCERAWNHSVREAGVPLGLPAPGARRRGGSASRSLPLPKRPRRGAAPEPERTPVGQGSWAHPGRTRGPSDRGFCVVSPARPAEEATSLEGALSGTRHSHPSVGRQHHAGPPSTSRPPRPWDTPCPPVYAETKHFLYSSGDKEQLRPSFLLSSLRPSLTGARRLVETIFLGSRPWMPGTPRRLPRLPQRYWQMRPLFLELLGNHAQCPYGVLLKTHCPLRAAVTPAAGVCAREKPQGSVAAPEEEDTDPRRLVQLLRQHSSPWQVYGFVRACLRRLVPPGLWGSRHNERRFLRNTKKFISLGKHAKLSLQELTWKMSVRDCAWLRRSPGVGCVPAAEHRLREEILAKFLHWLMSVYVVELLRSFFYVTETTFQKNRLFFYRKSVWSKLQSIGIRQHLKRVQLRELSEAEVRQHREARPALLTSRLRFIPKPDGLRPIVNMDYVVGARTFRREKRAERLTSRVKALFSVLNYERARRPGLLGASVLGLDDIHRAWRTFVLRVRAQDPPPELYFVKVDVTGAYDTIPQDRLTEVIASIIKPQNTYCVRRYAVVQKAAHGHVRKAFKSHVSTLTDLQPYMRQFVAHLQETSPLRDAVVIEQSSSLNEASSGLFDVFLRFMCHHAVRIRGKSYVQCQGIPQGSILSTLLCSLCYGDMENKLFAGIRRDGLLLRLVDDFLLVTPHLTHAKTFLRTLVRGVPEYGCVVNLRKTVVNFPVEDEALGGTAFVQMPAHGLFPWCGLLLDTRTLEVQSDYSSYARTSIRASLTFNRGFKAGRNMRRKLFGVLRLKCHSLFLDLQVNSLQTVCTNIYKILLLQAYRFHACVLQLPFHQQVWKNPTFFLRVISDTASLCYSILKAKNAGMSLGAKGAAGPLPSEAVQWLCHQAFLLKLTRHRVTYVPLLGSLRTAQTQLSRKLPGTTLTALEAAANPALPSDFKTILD

IC50 (ORF2p core [1]; HTRF, NRTI NTPs): < 0.01 µM
Compound: Cc1cn([C@H]2CC[C@@H](CO)O2)c(=O)[nH]c1=O [ddT, dideoxythymidine]

Compound: C[C@H](Cn1cnc2c(N)ncnc21)OCP(=O)(O)O [Tenofovir, tenofovir]
IC50 ([2]; Homo sapiens, read-out: IC50): 3.2 µM

IC50 index, fold = IC50 (drug, µM) ÷ [dNTP] (natural counterpart, 0.1 µM) (ORF2p core [3]): 64 fold
IC50 (ORF2p core [3]): 5 to 7 µM
Compound: Nc1nc2c(ncn2[C@H]2C=C[C@@H](CO)C2)c(=O)[nH]1 [Carbovir, carbovir]

inhibition of ORF2p (ORF2p core [1]; HTRF, 1 mM): no inhibition
IC50 (ORF2p core [1]; [6]): > 1000 µM
Compound: Cc1ccnc2c1NC(=O)c1cccnc1N2C1CC1 [Nevirapine, nevirapine]
IC50 ([2]; read-out: IC50): > 30 µM

IC50 (ORF2p core [1]; [6]): > 30 µM
Compound: O=C1Nc2ccc(Cl)cc2[C@@](C#CC2CC2)(C(F)(F)F)O1 [Efavirenz, efavirenz]

Compound: Cc1cn([C@H]2C[C@H](N=[N+]=[N-])[C@@H](CO)O2)c(=O)[nH]c1=O [AZT, zidovudine]
IC50 ([2]; read-out: IC50): 1.8 µM
fold change in ORF2p inhibitory activity compared with ddTTP and d4T (ORF2p core [1]): greater than 20 fold
IC50 (ORF2p core [1]; HTRF, NRTI NTPs): 0.2 to 0.75 µM

IC50 index, fold = IC50 (drug, µM) ÷ [dNTP] (natural counterpart, 0.1 µM) (ORF2p core [3]): 5.4 fold
IC50 (ORF2p core [3]): 0.4 to 0.6 µM
Compound: C=C1[C@H](CO)[C@@H](O)C[C@@H]1n1cnc2c(=O)[nH]c(N)nc21 [Entecavir, entecavir]

IC50 (ORF2p core [1]; [6]): > 30 µM
Compound: CC(C)Nc1cccnc1N1CCN(C(=O)c2cc3cc(NS(C)(=O)=O)ccc3[nH]2)CC1 [Delavirdine, delavirdine]

IC50 (ORF2p core [1]; HTRF, NRTI NTPs): 0.009 µM
IC50 [4]: 15 µM
Compound: Cc1cn([C@H]2C=C[C@@H](COP(=O)(O)OP(=O)(O)OP(=O)(O)O)O2)c(=O)[nH]c1=O [d4T-TP]

IC50 (ORF2p core [1]; [6]): > 30 µM
Compound: Cc1cc(/C=C/C#N)cc(C)c1Nc1ccnc(Nc2ccc(C#N)cc2)n1 [Rilpivirine, rilpivirine]

IC50 (ORF2p core [1]; [6]): > 30 µM
Compound: Cc1cc(C#N)cc(C)c1Oc1nc(Nc2ccc(C#N)cc2)nc(N)c1Br [Etravirine, etravirine]

Compound: Cc1cn(C2C=CC(COP(=O)(OCOC(=O)OC(C)C)OCOC(=O)OC(C)C)O2)c(=O)[nH]c1=O (stereo not shown) [POC d4T, d4T bis(isopropoxycarbonyloxymethyl)phosphate]
baseline and decitabine-induced IFN production ([5]; 10 µM, THP1 cells, 1 µM decitabine): reduced IFN further
fold more potent than d4T in suppressing interferon secretion ([5]; TREX1 knockout THP1 cells, 5 days, 1 µM decitabine): approximately 30 fold

Compound: Nc1ncn([C@H]2C[C@H](O)[C@@H](CO)O2)c(=O)n1 [decitabine, 5-aza-2ʹ-deoxycytidine]
interferon (IFN) production ([5]; 1 µM, THP1 monocytes): increased

Compound: Nc1nc(=O)n([C@@H]2CS[C@H](CO)O2)cc1F [FTC, emtricitabine]
IC50 ([2]; Homo sapiens, HeLa): 1.1 µM

Compound: CC(C)OC(=O)[C@H](C)N[P@](=O)(OC[C@H]1O[C@@H](n2ccc(=O)[nH]c2=O)[C@](C)(F)[C@@H]1O)Oc1ccccc1 [Sofosbuvir, sofosbuvir]
inhibition in cell-based L1 assays [2]: no inhibition
IC50 ([2]; Homo sapiens, HeLa): > 100 µM

IC50 (ORF2p core [1]; [6]): > 100 µM
Compound: O=C(O)P(=O)(O)O [Foscarnet, foscarnet]
